The test system of one assay is HepG2. As to the kind of experiment: Cytotoxicity against human HepG2 cells after 48 hrs by MTT assay. It is filed as functional, cell-based. The conditions noted are these: HepG2, 48 h. On the technique in general: Tetrazolium dyes change colour on reduction, which living cells bring about.
In assay [1] the test system is HeLa. Kind of assay: Cytotoxicity against human HeLa cells after 48 hrs by MTT assay. The format is functional, cell-based.
A further assay concerns A549. As to the kind of experiment: Cytotoxicity against human A549 cells after 48 hrs by MTT assay. It is filed as functional, cell-based. The conditions noted are these: A549, 48 h.
A further assay deals with HCT-8. As to the kind of experiment: Cytotoxicity against human HCT8 cells after 48 hrs by MTT assay. It is filed as functional, cell-based. The settings on record: HCT-8, 48 h.
Assay [2] relates to HeLa. Kind of assay: Cell cycle arrest in human HeLa cells assessed as accumulation at G2/M phase at 0.5 uM after 24 hrs using propidium iodide staining by FACS analysis (reference value: 24.4%). It is filed as functional.
Assay [3] has as its system HeLa. As to the kind of experiment: Cell cycle arrest in human HeLa cells assessed as accumulation at G1 phase at 0.5 uM after 24 hrs using propidium iodide staining by FACS analysis (reference value: 48.5%). It is filed as functional. On the technique in general: Flow cytometry measures light scatter and fluorescence of single cells or particles in a stream.
Assay [4] deals with HeLa. As to the kind of experiment: Increase of cyclin-B1 protein level in human HeLa cells Western blotting analysis. The format is functional, cell-based.
Assay [5] deals with HeLa. Kind of assay: Induction of morphological changes in human HeLa cells by immunofluorescence analysis. It is filed as functional, cell-based. The conditions noted are these: TDE = time-dependent effect.
Assay [6] has as its system HeLa. As to the kind of experiment: Increase of CDC2 protein level in human HeLa cells Western blotting analysis. It is filed as functional, cell-based. For orientation: A western blot detects proteins with antibodies after separation by electrophoresis.
For assay [7], the system named is HeLa. As to the kind of experiment: Cell cycle arrest in human HeLa cells assessed as accumulation at sub-G1 phase at 1 uM after 24 hrs using propidium iodide staining by FACS analysis (reference value: 0%). The format is functional.
Assay [8] relates to HeLa. Kind of assay: Cell cycle arrest in human HeLa cells assessed as accumulation at S phase at 1 uM after 24 hrs using propidium iodide staining by FACS analysis (reference value: 27.1%). The format is functional.
The subject of assay [9] is HeLa. As to the kind of experiment: Cell cycle arrest in human HeLa cells assessed as accumulation at sub-G1 phase at 0.5 uM after 24 hrs using propidium iodide staining by FACS analysis (reference value: 0%). The format is functional.
Assay [10] concerns HeLa. Kind of assay: Induction of microtubule depolymerization in human HeLa cells assessed as short and dense microtubule networks at 0.5 uM using DAPI staining by immunofluorescence analysis. It is filed as cell-based. The settings on record: TDE = time-dependent effect.
Assay [11] relates to HeLa. As to the kind of experiment: Cell cycle arrest in human HeLa cells assessed as accumulation at G2/M phase after 24 hrs using propidium iodide staining by FACS analysis. The format is functional, cell-based.
Assay [12] has as its system HeLa. As to the kind of experiment: Induction of apoptosis in human HeLa cells assessed as cell shrinkage, nuclear fragmentation and condensation dispersed throughout cytoplasm at 0.5 uM after 48 hrs by immunofluorescence analysis. It is filed as functional, cell-based.
In assay [13] the test system is HeLa. Kind of assay: Cell cycle arrest in human HeLa cells assessed as accumulation at S phase at 0.5 uM after 24 hrs using propidium iodide staining by FACS analysis (reference value: 27.1%). It is filed as functional.
Assay [14] deals with HeLa. As to the kind of experiment: Induction of apoptosis in human HeLa cells assessed as early apoptotic cells at 0.25 uM after 24 hrs using annexin V-FITC/PI and Hoechst 33258 staining by FACS analysis (reference value: 2.34%). It is filed as functional.
Assay [15] concerns HeLa. Kind of assay: Cell cycle arrest in human HeLa cells assessed as accumulation at G2/M phase at 1 uM after 24 hrs using propidium iodide staining by FACS analysis (reference value: 24.4%). It is filed as functional.
Assay [16] deals with HeLa. As to the kind of experiment: Induction of apoptosis in human HeLa cells assessed as early apoptotic cells at 0.5 uM after 24 hrs using annexin V-FITC/PI and Hoechst 33258 staining by FACS analysis (reference value: 2.34%). The format is functional.
Assay [17] has as its system HeLa. Kind of assay: Induction of morphological changes in human HeLa cells after 48 hrs by immunofluorescence analysis. It is filed as functional, cell-based.
Assay [18] concerns DNA. As to the kind of experiment: Binding affinity to calf thymus DNA assessed as reduction in intensity of positive band at 5 to 40 ug/ml after 24 hrs by circular dichroism analysis. It is filed as nucleic-acid assay. The conditions noted are these: Bos taurus.
Assay [19] has as its system HeLa. Kind of assay: Cell cycle arrest in human HeLa cells assessed as accumulation at G1 phase at 1 uM after 24 hrs using propidium iodide staining by FACS analysis (reference value: 48.5%). It is filed as functional.
For assay [20], the system named is HeLa. As to the kind of experiment: Induction of microtubule depolymerization in human HeLa cells assessed as short and dense microtubule networks at 0.5 uM after 48 hrs using DAPI staining by immunofluorescence analysis. The format is cell-based.
Assay [21] concerns HeLa. Kind of assay: Increase of p53 protein level in human HeLa cells Western blotting analysis. It is filed as functional, cell-based.
Assay [22] concerns HeLa. As to the kind of experiment: Induction of apoptosis in human HeLa cells assessed as cell shrinkage, nuclear fragmentation and condensation dispersed throughout cytoplasm at 0.5 uM by immunofluorescence analysis. The format is functional, cell-based. The settings on record: TDE = time-dependent effect.
Assay [23] has as its system HeLa. Kind of assay: Induction of apoptosis in human HeLa cells assessed as late apoptotic cells at 0.5 uM after 24 hrs using annexin V-FITC/PI and Hoechst 33258 staining by FACS analysis (reference value: 2.39%). The format is functional.
For assay [24], the system named is DNA. As to the kind of experiment: Binding affinity to calf thymus DNA at 0.5 mM after 5 mins by fluorescence analysis. The format is nucleic-acid assay. The conditions noted are these: Bos taurus.
The subject of assay [25] is HeLa. As to the kind of experiment: Induction of apoptosis in human HeLa cells assessed as late apoptotic cells at 0.25 uM after 24 hrs using annexin V-FITC/PI and Hoechst 33258 staining by FACS analysis (reference value: 2.39%). The format is functional.
Assay [26] deals with HeLa. Kind of assay: Increase of caspase-3 protein level in human HeLa cells Western blotting analysis. The format is functional, cell-based.

SMILES strings stand for the structures. The source made the active and inactive calls. The rule behind the calls is not given here.

The IC50 is the concentration that gives 50% inhibition. High values mean weaker potency, low ones greater potency. Regarding `COc1cc([C@@H]2c3cc4c(cc3[C@@H](Nc3ccc(S(=O)(=O)N5CCN(c6ccc([N+](=O)[O-])cc6)CC5)cc3)[C@H]3COC(=O)[C@H]23)OCO4)cc(OC)c1O`, the IC50 with HepG2 was 38.6 µM; with HeLa [1], 27.8 µM; in the assay on A549, 42.3 µM; in the assay with HCT-8 it was 32.5 µM.
As to `COc1cc([C@@H]2c3cc4c(cc3[C@@H](NCCCNc3ccc([N+](=O)[O-])cc3)[C@H]3COC(=O)[C@H]23)OCO4)cc(OC)c1O`, the IC50 in the assay on HepG2 stood at 22.4 µM; in the assay on HeLa [1], 10.5 µM; in the assay on A549 it was 43.2 µM; in the assay with HCT-8 it was 19.7 µM.
On to `COc1cc([C@@H]2c3cc4c(cc3[C@@H](N3CCN(C5CCCC5)CC3)[C@H]3COC(=O)[C@H]23)OCO4)cc(OC)c1O`, for which the IC50 is 8.42 µM with HepG2, 11.6 µM in the assay with HeLa [1], 14.5 µM in the assay on A549 and 10.2 µM in the assay with HCT-8.
With `CCN1CCN([C@@H]2c3cc4c(cc3[C@@H](c3cc(OC)c(O)c(OC)c3)[C@H]3C(=O)OC[C@@H]32)OCO4)CC1`, the IC50 in the assay on HepG2 came out at 5.41 µM; in the assay on HeLa [1], 3.81 µM; in the assay with A549 it was 28.8 µM; in the assay on HCT-8, 19.8 µM.
On to `COc1cc([C@@H]2c3cc4c(cc3[C@@H](O[C@@H]3O[C@@H]5CO[C@@H](C)O[C@H]5[C@H](O)[C@H]3O)[C@H]3COC(=O)[C@H]23)OCO4)cc(OC)c1O` [ETOPOSIDE], for which the IC50 came out at 11.5 µM with HepG2, 4.73 µM in the assay with HeLa [1] and 6.54 µM in the assay on HCT-8.
Regarding `COc1cc([C@@H]2c3cc4c(cc3[C@@H](Nc3ccc(S(=O)(=O)NC5CCCC5)cc3)[C@H]3COC(=O)[C@H]23)OCO4)cc(OC)c1O`, the half-maximal inhibitory concentration (IC50) in the assay on HepG2 stood at 47.6 µM; in the assay with HeLa [1], 35.2 µM; in the assay with A549, 52.4 µM; in the assay with HCT-8 it was 38.7 µM.
For the molecule `COc1cc([C@@H]2c3cc4c(cc3[C@@H](N3CCN(c5ccc([N+](=O)[O-])cc5)CC3)[C@H]3COC(=O)[C@H]23)OCO4)cc(OC)c1O`, the Activity in the assay on HeLa [2] was 35.4%; in the assay with HeLa [3], 5.9%; in the assay with HeLa [4], “Dose-dependent effect”; in the assay on HeLa [5], “tde”; with HeLa [6] it was “Dose-dependent effect”; in the assay on HeLa [7], 4.9%. Besides, the Activity was 28.6% in the assay with HeLa [8]; 1% with HeLa [9]; “tde” in the assay on HeLa [10]; “Dose-dependent effect” in the assay with HeLa [11]; 58.7% with HeLa [13]; 3.99% in the assay on HeLa [14]. Moreover, the Activity in the assay on HeLa [15] is 71.4%; with HeLa [16] it was 4.88%; in the assay with HeLa [19], 0.1%; in the assay with HeLa [21], “Dose-dependent effect”; with HeLa [22] it was “tde”; with HeLa [23] it was 4.76%. Further, the Activity was 3.54% in the assay on HeLa [25] and “Dose-dependent effect” in the assay with HeLa [26]. Further, the IC50 amounted to 1.43 µM with HepG2, 0.07 µM with HeLa [1], 0.16 µM with A549 and 2.12 µM with HCT-8. In addition, the result in the assay on HeLa [12], in the assay with HeLa [17], in the assay with DNA [18], in the assay with HeLa [20] and in the assay on DNA [24] was Active.
For the molecule `COc1cc([C@@H]2c3cc4c(cc3[C@@H](NCCNc3ccc([N+](=O)[O-])cc3)[C@H]3COC(=O)[C@H]23)OCO4)cc(OC)c1O`, the IC50 was determined as 32.3 µM in the assay on HepG2, 14.8 µM with HeLa [1], 25.8 µM in the assay on A549 and 14.8 µM with HCT-8.
Consider `COc1cc([C@@H]2c3cc4c(cc3[C@@H](N3CCN(c5ccc(F)cc5)CC3)[C@H]3COC(=O)[C@H]23)OCO4)cc(OC)c1O`, for which the IC50 in the assay on HepG2 amounted to 20.6 µM; in the assay with HeLa [1] it was 13.6 µM; with A549, 27.3 µM; in the assay with HCT-8, 14.3 µM.
With `COc1cc([C@@H]2c3cc4c(cc3[C@@H](N3CCN(C)CC3)[C@H]3COC(=O)[C@H]23)OCO4)cc(OC)c1O`, the IC50 in the assay on HepG2 is 2.72 µM; in the assay on HeLa [1], 3.4 µM; in the assay on A549, 26.4 µM; in the assay on HCT-8, 12.4 µM.
For `COc1cc([C@@H]2c3cc4c(cc3[C@@H](Nc3ccc(S(=O)(=O)N5CCN(c6ccc(F)cc6)CC5)cc3)[C@H]3COC(=O)[C@H]23)OCO4)cc(OC)c1O`, in that order: 54.4 µM, 21.9 µM, 57.3 µM and 30.4 µM.

Source of the values: ChEMBL document CHEMBL2439961, “Synthesis and evaluation of the cell cycle arrest and CT DNA interaction properties of 4β-amino-4'-O-demethyl-4-deoxypodophyllotoxins” (Bioorg Med Chem, 2013).
